From ChEMBL document CHEMBL4507282, “Data for DCP probe BI-1950” (2021)

Experiments:
[1] = tested on: Tyrosine-protein kinase ABL1 (Homo sapiens), P00519 [F317I]; conditions: Compound concentration 1000.0 nM
[2] = tested on: Tyrosine-protein kinase ABL1 (Homo sapiens), P00519 [F317L]; conditions: Compound concentration 1000.0 nM
[3] = tested on: Tyrosine-protein kinase ABL1 (Homo sapiens), P00519 [T315I]; conditions: Compound concentration 1000.0 nM
[4] = target: RAC-alpha serine/threonine-protein kinase (Homo sapiens) (UniProt P31749); conditions: Compound concentration 1000.0 nM
[5] = target: RAC-gamma serine/threonine-protein kinase (Homo sapiens) (UniProt Q9Y243); conditions: Compound concentration 1000.0 nM
[6] = target: Aurora kinase B (Homo sapiens) (UniProt Q96GD4); conditions: Compound concentration 1000.0 nM
[7] = target: Tyrosine-protein kinase receptor UFO (Homo sapiens) (UniProt P30530); conditions: Compound concentration 1000.0 nM
[8] = tested on: Serine/threonine-protein kinase B-raf (Homo sapiens), P15056 [V600E]; conditions: Compound concentration 1000.0 nM
Serine/threonine-protein kinase B-raf (Homo sapiens), P15056 [V600E], sequence (P15056 whole entry V600E): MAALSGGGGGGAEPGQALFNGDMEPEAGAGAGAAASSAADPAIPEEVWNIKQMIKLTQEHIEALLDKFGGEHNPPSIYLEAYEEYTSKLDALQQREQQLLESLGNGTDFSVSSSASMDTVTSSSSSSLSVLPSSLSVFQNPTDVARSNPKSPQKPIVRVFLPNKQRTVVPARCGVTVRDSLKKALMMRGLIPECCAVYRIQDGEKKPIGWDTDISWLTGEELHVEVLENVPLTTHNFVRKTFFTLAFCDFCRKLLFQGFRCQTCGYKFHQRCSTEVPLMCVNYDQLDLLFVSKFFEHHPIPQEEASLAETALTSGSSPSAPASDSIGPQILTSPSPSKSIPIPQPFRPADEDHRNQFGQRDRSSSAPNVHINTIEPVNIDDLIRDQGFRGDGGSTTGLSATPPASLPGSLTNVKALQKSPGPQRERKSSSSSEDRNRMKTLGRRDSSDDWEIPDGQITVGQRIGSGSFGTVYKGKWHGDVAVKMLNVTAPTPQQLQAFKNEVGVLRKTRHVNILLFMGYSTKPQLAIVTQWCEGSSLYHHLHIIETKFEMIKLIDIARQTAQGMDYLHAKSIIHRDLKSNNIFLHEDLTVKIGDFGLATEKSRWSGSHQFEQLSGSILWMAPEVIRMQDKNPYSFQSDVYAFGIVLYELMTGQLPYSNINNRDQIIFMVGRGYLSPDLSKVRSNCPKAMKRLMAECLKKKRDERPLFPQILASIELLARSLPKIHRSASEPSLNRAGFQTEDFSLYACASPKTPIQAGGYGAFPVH

[9] = target: Serine/threonine-protein kinase BRSK2 (Homo sapiens) (UniProt Q8IWQ3); conditions: Compound concentration 1000.0 nM
[10] = target: Calcium/calmodulin-dependent protein kinase type 1G (Homo sapiens) (UniProt Q96NX5); conditions: Compound concentration 1000.0 nM
Calcium/calmodulin-dependent protein kinase type 1G (Homo sapiens), sequence (Q96NX5 whole entry): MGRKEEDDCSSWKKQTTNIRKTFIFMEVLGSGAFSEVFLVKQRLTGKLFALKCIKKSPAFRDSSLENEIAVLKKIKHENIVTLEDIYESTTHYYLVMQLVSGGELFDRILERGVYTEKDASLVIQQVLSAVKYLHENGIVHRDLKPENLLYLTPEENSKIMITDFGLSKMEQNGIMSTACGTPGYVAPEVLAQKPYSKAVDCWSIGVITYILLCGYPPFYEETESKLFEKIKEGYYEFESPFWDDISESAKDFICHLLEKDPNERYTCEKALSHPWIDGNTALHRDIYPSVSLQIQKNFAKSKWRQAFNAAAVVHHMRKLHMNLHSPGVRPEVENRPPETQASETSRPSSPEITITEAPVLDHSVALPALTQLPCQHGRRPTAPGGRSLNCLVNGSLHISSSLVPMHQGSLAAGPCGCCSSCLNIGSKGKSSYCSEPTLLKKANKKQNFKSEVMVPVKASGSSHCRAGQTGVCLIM

[11] = target: Cyclin-dependent kinase 11A (Homo sapiens) (UniProt Q9UQ88); conditions: Compound concentration 1000.0 nM
[12] = tested on: Epidermal growth factor receptor (Homo sapiens), P00533 [L861Q]; conditions: Compound concentration 1000.0 nM
[13] = target: Ephrin type-B receptor 2 (Homo sapiens) (UniProt P29323); conditions: Compound concentration 1000.0 nM
[14] = tested on: Receptor-type tyrosine-protein kinase FLT3 (Homo sapiens), P36888 [D835H]; conditions: Compound concentration 1000.0 nM
[15] = tested on: Receptor-type tyrosine-protein kinase FLT3 (Homo sapiens), P36888 [UNDEFINED MUTATION]; conditions: Compound concentration 1000.0 nM
[16] = target: Tyrosine-protein kinase HCK (Homo sapiens) (UniProt P08631); conditions: Compound concentration 1000.0 nM
[17] = target: Homeodomain-interacting protein kinase 1 (Homo sapiens) (UniProt Q86Z02); conditions: Compound concentration 1000.0 nM
[18] = target: Insulin receptor-related protein (Homo sapiens) (UniProt P14616); conditions: Compound concentration 1000.0 nM
Insulin receptor-related protein (Homo sapiens), sequence (P14616 27-742 limits assumed): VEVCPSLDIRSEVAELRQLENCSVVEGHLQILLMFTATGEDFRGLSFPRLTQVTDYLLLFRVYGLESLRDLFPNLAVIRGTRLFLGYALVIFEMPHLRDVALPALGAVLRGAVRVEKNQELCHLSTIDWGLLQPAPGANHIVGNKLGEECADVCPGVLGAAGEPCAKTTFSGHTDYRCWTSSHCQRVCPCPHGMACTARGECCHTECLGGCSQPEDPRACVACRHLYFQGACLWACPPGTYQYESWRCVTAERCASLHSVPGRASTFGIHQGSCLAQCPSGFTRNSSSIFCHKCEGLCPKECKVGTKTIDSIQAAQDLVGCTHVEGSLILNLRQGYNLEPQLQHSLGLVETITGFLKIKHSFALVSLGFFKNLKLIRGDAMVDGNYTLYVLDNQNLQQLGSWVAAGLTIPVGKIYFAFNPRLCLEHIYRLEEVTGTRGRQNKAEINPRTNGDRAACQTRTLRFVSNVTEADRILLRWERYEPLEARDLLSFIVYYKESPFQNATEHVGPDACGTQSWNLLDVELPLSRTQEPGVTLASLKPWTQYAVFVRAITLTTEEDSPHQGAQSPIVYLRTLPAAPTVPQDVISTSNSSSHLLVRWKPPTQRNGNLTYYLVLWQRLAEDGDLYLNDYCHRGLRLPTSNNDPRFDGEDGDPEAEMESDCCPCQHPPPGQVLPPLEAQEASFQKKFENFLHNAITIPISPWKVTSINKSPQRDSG
Insulin receptor-related protein (Homo sapiens), sequence (P14616 747-1297 limits assumed): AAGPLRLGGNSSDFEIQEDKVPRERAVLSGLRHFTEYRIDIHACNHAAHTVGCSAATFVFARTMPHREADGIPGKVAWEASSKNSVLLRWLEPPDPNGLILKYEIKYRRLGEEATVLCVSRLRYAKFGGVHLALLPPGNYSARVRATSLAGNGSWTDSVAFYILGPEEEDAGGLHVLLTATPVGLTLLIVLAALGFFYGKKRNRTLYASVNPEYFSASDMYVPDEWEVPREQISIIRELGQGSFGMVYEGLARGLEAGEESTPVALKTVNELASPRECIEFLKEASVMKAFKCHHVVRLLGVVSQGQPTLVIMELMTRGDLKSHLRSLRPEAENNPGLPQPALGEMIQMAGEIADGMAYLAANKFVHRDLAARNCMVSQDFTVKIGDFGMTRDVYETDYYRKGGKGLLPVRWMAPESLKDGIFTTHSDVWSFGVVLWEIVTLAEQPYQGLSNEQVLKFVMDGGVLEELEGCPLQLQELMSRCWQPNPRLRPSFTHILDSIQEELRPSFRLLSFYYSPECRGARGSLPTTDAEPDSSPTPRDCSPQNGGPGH

[19] = target: Mitogen-activated protein kinase 8 (Homo sapiens) (UniProt P45983); conditions: Compound concentration 1000.0 nM
[20] = target: MAP kinase-activated protein kinase 5 (Homo sapiens) (UniProt Q8IW41); conditions: Compound concentration 1000.0 nM
[21] = target: Dual specificity mitogen-activated protein kinase kinase 4 (Homo sapiens) (UniProt P45985); conditions: Compound concentration 1000.0 nM
[22] = target: Muscle, skeletal receptor tyrosine-protein kinase (Homo sapiens) (UniProt O15146); conditions: Compound concentration 1000.0 nM
[23] = target: Myosin light chain kinase 2, skeletal/cardiac muscle (Homo sapiens) (UniProt Q9H1R3); conditions: Compound concentration 1000.0 nM
[24] = target: Serine/threonine-protein kinase Nek11 (Homo sapiens) (UniProt Q8NG66); conditions: Compound concentration 1000.0 nM
[25] = target: Cyclin-dependent kinase 16 (Homo sapiens) (UniProt Q00536); conditions: Compound concentration 1000.0 nM
[26] = target: Cyclin-dependent kinase 2 homolog (Plasmodium falciparum (isolate 3D7)) (UniProt P61075); conditions: Compound concentration 1000.0 nM
[27] = target: Protein kinase C epsilon type (Homo sapiens) (UniProt Q02156); conditions: Compound concentration 1000.0 nM
[28] = target: cAMP-dependent protein kinase catalytic subunit PRKX (Homo sapiens) (UniProt P51817); conditions: Compound concentration 1000.0 nM
[29] = target: Ribosomal protein S6 kinase alpha-2 (Homo sapiens) (UniProt Q15349); conditions: Compound concentration 1000.0 nM
Ribosomal protein S6 kinase alpha-2 (Homo sapiens), sequence (Q15349 whole entry): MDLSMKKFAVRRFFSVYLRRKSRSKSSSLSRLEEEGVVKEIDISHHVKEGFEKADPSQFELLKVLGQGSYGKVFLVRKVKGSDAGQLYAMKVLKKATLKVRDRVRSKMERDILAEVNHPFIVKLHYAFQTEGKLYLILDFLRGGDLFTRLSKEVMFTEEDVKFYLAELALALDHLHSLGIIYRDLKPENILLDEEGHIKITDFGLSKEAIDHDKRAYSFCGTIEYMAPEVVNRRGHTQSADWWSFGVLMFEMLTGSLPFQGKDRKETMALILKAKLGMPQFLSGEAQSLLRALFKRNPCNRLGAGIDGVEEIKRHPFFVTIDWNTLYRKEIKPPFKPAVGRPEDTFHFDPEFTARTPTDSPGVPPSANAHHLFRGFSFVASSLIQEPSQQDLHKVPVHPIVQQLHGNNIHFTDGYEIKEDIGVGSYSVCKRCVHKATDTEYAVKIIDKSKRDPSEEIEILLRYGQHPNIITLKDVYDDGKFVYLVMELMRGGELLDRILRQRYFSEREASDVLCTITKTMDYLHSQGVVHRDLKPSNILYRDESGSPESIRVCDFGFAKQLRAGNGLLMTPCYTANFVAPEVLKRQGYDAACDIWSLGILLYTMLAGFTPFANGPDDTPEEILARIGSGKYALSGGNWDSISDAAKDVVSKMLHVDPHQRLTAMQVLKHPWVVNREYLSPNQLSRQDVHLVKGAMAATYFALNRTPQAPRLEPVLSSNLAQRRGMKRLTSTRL

[30] = target: Serine/threonine-protein kinase 16 (Homo sapiens) (UniProt O75716); conditions: Compound concentration 1000.0 nM
Serine/threonine-protein kinase 16 (Homo sapiens), sequence (O75716 whole entry): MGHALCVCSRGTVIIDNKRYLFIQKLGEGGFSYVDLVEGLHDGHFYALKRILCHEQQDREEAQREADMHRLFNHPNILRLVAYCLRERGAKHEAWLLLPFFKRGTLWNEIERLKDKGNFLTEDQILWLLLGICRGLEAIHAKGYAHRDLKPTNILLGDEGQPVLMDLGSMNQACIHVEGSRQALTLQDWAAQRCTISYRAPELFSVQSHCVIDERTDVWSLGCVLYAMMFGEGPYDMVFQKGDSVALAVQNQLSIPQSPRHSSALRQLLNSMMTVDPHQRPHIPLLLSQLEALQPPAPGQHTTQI

[31] = target: Serine/threonine-protein kinase 33 (Homo sapiens) (UniProt Q9BYT3); conditions: Compound concentration 1000.0 nM
[32] = target: Serine/threonine-protein kinase 35 (Homo sapiens) (UniProt Q8TDR2); conditions: Compound concentration 1000.0 nM
[33] = target: Serine/threonine-protein kinase TBK1 (Homo sapiens) (UniProt Q9UHD2); conditions: Compound concentration 1000.0 nM
[34] = target: Serine/threonine-protein kinase tousled-like 1 (Homo sapiens) (UniProt Q9UKI8); conditions: Compound concentration 1000.0 nM
[35] = target: Serine/threonine-protein kinase ULK2 (Homo sapiens) (UniProt Q8IYT8); conditions: Compound concentration 1000.0 nM
Serine/threonine-protein kinase ULK2 (Homo sapiens), sequence (Q8IYT8 whole entry): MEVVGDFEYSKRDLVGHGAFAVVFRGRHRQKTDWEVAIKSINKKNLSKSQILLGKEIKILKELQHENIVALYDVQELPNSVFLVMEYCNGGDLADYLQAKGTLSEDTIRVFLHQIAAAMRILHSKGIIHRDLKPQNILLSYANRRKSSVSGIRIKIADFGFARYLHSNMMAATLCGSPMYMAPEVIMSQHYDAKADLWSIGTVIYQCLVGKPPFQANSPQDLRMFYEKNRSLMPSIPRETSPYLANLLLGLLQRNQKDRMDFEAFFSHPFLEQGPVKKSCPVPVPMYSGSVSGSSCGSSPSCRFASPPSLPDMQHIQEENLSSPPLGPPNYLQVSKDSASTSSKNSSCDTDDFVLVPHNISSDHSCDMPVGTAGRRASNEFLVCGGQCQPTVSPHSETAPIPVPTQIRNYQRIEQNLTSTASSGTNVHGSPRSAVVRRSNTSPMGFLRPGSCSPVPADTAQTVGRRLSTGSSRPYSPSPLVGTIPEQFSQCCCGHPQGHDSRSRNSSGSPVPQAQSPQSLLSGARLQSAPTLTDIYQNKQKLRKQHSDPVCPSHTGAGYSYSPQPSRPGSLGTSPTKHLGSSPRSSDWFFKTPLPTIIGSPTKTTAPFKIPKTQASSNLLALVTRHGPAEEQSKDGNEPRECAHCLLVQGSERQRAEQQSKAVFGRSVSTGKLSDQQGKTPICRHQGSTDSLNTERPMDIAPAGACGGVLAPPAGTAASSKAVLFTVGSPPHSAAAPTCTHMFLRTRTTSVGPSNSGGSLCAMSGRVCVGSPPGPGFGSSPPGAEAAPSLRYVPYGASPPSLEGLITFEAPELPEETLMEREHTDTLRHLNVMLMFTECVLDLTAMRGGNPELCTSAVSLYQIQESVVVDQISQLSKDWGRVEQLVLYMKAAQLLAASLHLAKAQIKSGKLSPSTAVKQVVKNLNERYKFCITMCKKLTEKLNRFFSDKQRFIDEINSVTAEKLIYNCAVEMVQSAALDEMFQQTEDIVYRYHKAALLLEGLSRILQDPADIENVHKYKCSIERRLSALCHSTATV

[36] = target: Serine/threonine-protein kinase WNK4 (Homo sapiens) (UniProt Q96J92); conditions: Compound concentration 1000.0 nM
[37] = target: D(3) dopamine receptor (Homo sapiens) (UniProt P35462); conditions: Compound concentration 10.0 uM
D(3) dopamine receptor (Homo sapiens), sequence (P35462 whole entry): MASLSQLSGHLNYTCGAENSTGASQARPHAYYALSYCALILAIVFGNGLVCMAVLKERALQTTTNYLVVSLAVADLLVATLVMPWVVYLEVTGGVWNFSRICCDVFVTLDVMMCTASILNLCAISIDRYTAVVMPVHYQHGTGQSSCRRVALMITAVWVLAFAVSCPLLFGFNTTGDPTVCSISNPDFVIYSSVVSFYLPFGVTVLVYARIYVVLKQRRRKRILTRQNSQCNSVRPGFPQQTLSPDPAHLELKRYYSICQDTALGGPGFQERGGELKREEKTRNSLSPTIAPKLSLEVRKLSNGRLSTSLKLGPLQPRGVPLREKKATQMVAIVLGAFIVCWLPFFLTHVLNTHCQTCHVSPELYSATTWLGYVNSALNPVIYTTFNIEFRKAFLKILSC

[38] = target: T1, D(4) dopamine receptor (Homo sapiens) (UniProt P21917); conditions: Compound concentration 10.0 uM
T1 sequence (whole entry): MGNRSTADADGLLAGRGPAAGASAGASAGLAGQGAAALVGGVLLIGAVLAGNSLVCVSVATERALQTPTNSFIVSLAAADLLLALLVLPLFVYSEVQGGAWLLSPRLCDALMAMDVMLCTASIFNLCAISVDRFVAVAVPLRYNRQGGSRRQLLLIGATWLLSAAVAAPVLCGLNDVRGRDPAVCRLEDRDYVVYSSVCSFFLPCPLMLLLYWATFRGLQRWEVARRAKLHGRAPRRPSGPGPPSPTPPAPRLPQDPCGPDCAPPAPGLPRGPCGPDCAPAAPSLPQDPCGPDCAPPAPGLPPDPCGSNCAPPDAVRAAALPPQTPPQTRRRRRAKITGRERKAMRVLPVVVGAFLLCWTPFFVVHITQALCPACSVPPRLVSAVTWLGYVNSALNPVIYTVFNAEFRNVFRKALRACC

[39] = target: Muscarinic acetylcholine receptor M4 (Homo sapiens) (UniProt P08173); conditions: Compound concentration 10.0 uM

C[C@@]1(Cc2ccc(C#N)cc2)C(=O)N(c2cc(Cl)cc(Cl)c2)c2ncc(C(=O)NC3(c4nc(C5CCC5)no4)CC3)n21 [BI 9446]
inactive: residual activity [1] 96% | residual activity [2] 86% | residual activity [3] 100% | residual activity [4] 100% | residual activity [5] 100% | residual activity [6] 100% | residual activity [7] 100% | residual activity [8] 100% | residual activity [9] 100% | residual activity [10] 100% | residual activity [11] 100% | residual activity [12] 100% | residual activity [13] 94% | residual activity [14] 100% | residual activity [15] 100% | residual activity [16] 100% | residual activity [17] 100% | residual activity [18] 100% | residual activity [19] 100% | residual activity [20] 100% | residual activity [21] 100% | residual activity [22] 100% | residual activity [23] 100% | residual activity [24] 100% | residual activity [25] 97% | residual activity [26] 100% | residual activity [27] 100% | residual activity [28] 100% | residual activity [29] 99% | residual activity [30] 100% | residual activity [31] 100% | residual activity [32] 100% | residual activity [33] 95% | residual activity [34] 100% | residual activity [35] 100% | residual activity [36] 100% | inhibition [37] 9.55% | inhibition [38] 13.6% | inhibition [39] 21.6%

C[C@H](NC(=O)c1cnc2n1[C@](C)(Cc1ccc(C#N)cc1)C(=O)N2c1cc(Cl)c(F)c(Cl)c1)C(=O)NC1(c2ccccn2)CC1 [BI 1950]
inactive: residual activity [1] 78% | residual activity [2] 100% | residual activity [3] 85% | residual activity [4] 100% | residual activity [5] 60% | residual activity [6] 100% | residual activity [7] 100% | residual activity [8] 100% | residual activity [9] 100% | residual activity [10] 100% | residual activity [11] 100% | residual activity [12] 100% | residual activity [13] 100% | residual activity [14] 100% | residual activity [15] 100% | residual activity [16] 100% | residual activity [17] 97% | residual activity [18] 100% | residual activity [19] 81% | residual activity [20] 96% | residual activity [21] 100% | residual activity [22] 100% | residual activity [23] 98% | residual activity [24] 100% | residual activity [25] 100% | residual activity [26] 100% | residual activity [27] 100% | residual activity [28] 100% | residual activity [29] 94% | residual activity [30] 100% | residual activity [31] 88% | residual activity [32] 100% | residual activity [33] 97% | residual activity [34] 100% | residual activity [35] 100% | residual activity [36] 100% | inhibition [37] -3.54% | inhibition [38] -2.68% | inhibition [39] 12.1%
